This is an account of results in patent US20130281361A1, “METHODS OF TREATING AND PREVENTING RHINOVIRUS INFECTION” (priority 2010, published 2013).

For one experiment, the system named is papillomavirus. The note with it: background literature; cited from earlier work.
The subject of the next experiment is adenovirus. The note with it: background literature; cited from earlier work.
The test system of a further experiment is rhinovirus (Rv16). Briefly: Rhinovirus (Rv16) infectivity: virus incubated with peptide, titer quantified by TCID50 assay using H1-HeLa cells. Type of experiment: cell-based. The following applies: for concentration at which maximal efficacy was reached / reduction of rhinovirus titer at maximal efficacy: Rv16, 1 hour at 37° C.; for reduction of rhinovirus titer at maximal efficacy: at the concentration given under E5. The method, then: To determine if β-defensins had antiviral activity against rhinovirus, recombinant human β-defensins (Peprotech, Rocky Hill, N.J.) were used in assays with rhinovirus (Rv16). Recombinant β-defensin proteins were diluted in PBS to the desired concentrations (0.25-1.25 μg/mL). Virus was added to each tube to a final volume of 40 μL and incubated for 1 hour at 37° C. plus 5% CO2. After incubation, 200 uL of cell culture media was added to each tube and viral titers were quantified in a 50% Tissue Culture Infectious Dose (TCID50) assay using H1-HeLa cells. The TCID50 assay is a standard endpoint dilution assay that is used to quantify how much of a given virus is present in a sample. The limit of detection for rhinovirus in the assay was 1.2 log10 TCID50.
Human α-defensins and LL-37, a broadly expressed antimicrobial peptide from the cathelicidin family, were also tested for antiviral activity against rhinovirus. Recombinant human α-defensins (HNP-1, HNP-3 and HNP-5) (Pepnet, Louisville, Ky.) and recombinant LL-37 (Pepnet, Louisville, Ky.) were used in assays with rhinovirus (Rv16) to determine their antiviral activity. Recombinant HBD-3 (Peprotech, Rocky Hill, N.J.) was used as a control. The recombinant proteins were diluted in PBS to the desired concentrations (see FIG. 2). Virus was added to each tube to a final volume of 40 μL and incubated for 1 hour at 37° C. plus 5% CO2. After incubation, 200 μL of cell culture media was added to each tube and the concentration of virus was quantified by TCID50 assay using H1-HeLa cells. The limit of detection for rhinovirus in the assay was 1.2 log10 TCID50/mL.

Another experiment concerns rhinovirus. The note with it: Proud et al., J Immunol 172:4637-4645, 2004; cited from earlier work.

“Also recorded” adds a separate entry of the source. No end group written: not given here.

In the case of “human defensin 5 (ATCYCRTGRCATRESLSGVCEISGRLYRLCCR; ends and bridges not checked; cysteine pairing not given here; UniProt Q01523 63-94, looked up, fragment) [HD5, human α-defensin]”, in the experiment on papillomavirus, the “antiviral activity against papillomavirus” value is given as “antiviral activity was observed”. Besides, the “antiviral activity against adenovirus” value in the experiment with adenovirus is given as “antiviral activity was observed”.
In the case of human neutrophil peptide 1 [HNP-1], the “antiviral activity against papillomavirus” value in the experiment with papillomavirus is “antiviral activity was observed”. Also, the “antiviral activity against adenovirus” value with adenovirus is listed as “antiviral activity was observed”. In addition, in the experiment with rhinovirus (Rv16) (Example 2, FIG. 2), the “antiviral activity against rhinovirus (Rv16), in words” value (shortened to “antiviral activity against rhinovirus”) was “exhibited antiviral activity”; the “concentration at which maximal efficacy was reached” value (“concentration” for short) was 5 µg/mL; the “reduction of rhinovirus titer at maximal efficacy” value (from here on “reduction of rhinovirus titer”) is recorded as 1 Log10 TCID50/mL.
Regarding human neutrophil peptide 3 [HNP-3], in the experiment on rhinovirus (Rv16) (Example 2, FIG. 2), the “antiviral activity against rhinovirus” value is given as “exhibited antiviral activity”; the “concentration” value amounted to 2.5 µg/mL; the “reduction of rhinovirus titer” value amounted to 2.3 Log10 TCID50/mL.
Take “human β-defensin 1 (DHYNCVSSGGQCLYSACPIFTKIQGTCYRGKAKCCK; ends and bridges not checked; cysteine pairing not given here; UniProt P60022 33-68, looked up) [HBD-1, recombinant human β-defensin (Peprotech)]”: the “antiviral activity against papillomavirus” value with papillomavirus was “antiviral activity was observed”. Moreover, the “antiviral activity against adenovirus” value in the experiment on adenovirus is “antiviral activity was observed”. Further, the “antiviral activity against rhinovirus” value in the experiment on rhinovirus (Rv16) (Example 1, FIG. 1) was “significantly reduced viral concentration; also recorded: exhibited antiviral activity”.
Consider human β-defensin 2 [HBD-2], for which the “antiviral activity against papillomavirus” value in the experiment on papillomavirus is recorded as “not”. For the same molecule, in the experiment on adenovirus, the “antiviral activity against adenovirus” value was “not”. In the experiment with rhinovirus (Rv16) (Example 1, FIG. 1), the “antiviral activity against rhinovirus” value is recorded as “significantly reduced viral concentration; also recorded: exhibited antiviral activity”. In addition, the “ability to inactivate rhinovirus” value in the experiment with rhinovirus is reported as “unable to inactivate rhinovirus”.
“human β-defensin 3 (GIINTLQKYYCRVRGGRCAVLSCLPKEEQIGKCSTRGRKCCRRKK; ends and bridges not checked; cysteine pairing not given here; UniProt P81534 23-67, looked up) [HBD-3, recombinant human β-defensin (Peprotech)]”: the “antiviral activity against rhinovirus” value was “significantly reduced viral concentration; also recorded: exhibited antiviral activity” with rhinovirus (Rv16) (Example 1, FIG. 1) and “most susceptible” in the experiment with rhinovirus (Rv16) (Example 2, FIG. 2).
Regarding “human β-defensin 4 (EFELDRICGYGTARCRKKCRSQEYRIGRCPNTYACCLRKWDESLLNRTKP; ends and bridges not checked; cysteine pairing not given here; UniProt Q8WTQ1 23-72, looked up) [HBD-4, recombinant human β-defensin (Peprotech)]”, the “antiviral activity against rhinovirus” value in the experiment on rhinovirus (Rv16) (Example 1, FIG. 1) is listed as “significantly reduced viral concentration; also recorded: exhibited antiviral activity”.

B1: HNP-5: recombinant human α-defensin (Pepnet), α-5; probably human defensin 5 (HD5) (protein, UniProt Q01523 20-94, looked up)
Defensin alpha 5: ESLQERADEATTQKQSGEDNQDLAISFAGNGLSALRTSGSQARATCYCRTGRCATRESLSGVCEISGRLYRLCCR
modifications: Defensin-5 recombinant
B1: in the experiment with rhinovirus (Rv16) (Example 2, FIG. 2), the “antiviral activity against rhinovirus” value is “most effective; also recorded: exhibited antiviral activity”; the “concentration” value stood at 2 µg/mL; the “reduction of rhinovirus titer” value was determined as 2.5 Log10 TCID50/mL.
